# Results: article PMC9414551 (Pharmaceuticals, 2022)
# “And” between values parts separate entries of the source, which are not always exact repeats. Identical values can stand only once. Counter-ions that a name gives are not always drawn.
# Legend:
# [1] = biological target: T1, NR1-2B NMDAR (Homo sapiens, UniProt Q05586+Q13224); assay: FLIPR Ca2+ assay, blocker concentration-response curve; assay type: cell-based; parameters: host or cells: CHO (CHO-hNR1-h2B), constitutive expression; details: for Min. (%), minimal % Ca2+ influx in the presence of 100 μM blocker: 10 µM L-glutamate, no Mg2+; for Slope: logistic fit of blocker CRC
# T1 sequence (Q13224 27-1484, other chains not shown): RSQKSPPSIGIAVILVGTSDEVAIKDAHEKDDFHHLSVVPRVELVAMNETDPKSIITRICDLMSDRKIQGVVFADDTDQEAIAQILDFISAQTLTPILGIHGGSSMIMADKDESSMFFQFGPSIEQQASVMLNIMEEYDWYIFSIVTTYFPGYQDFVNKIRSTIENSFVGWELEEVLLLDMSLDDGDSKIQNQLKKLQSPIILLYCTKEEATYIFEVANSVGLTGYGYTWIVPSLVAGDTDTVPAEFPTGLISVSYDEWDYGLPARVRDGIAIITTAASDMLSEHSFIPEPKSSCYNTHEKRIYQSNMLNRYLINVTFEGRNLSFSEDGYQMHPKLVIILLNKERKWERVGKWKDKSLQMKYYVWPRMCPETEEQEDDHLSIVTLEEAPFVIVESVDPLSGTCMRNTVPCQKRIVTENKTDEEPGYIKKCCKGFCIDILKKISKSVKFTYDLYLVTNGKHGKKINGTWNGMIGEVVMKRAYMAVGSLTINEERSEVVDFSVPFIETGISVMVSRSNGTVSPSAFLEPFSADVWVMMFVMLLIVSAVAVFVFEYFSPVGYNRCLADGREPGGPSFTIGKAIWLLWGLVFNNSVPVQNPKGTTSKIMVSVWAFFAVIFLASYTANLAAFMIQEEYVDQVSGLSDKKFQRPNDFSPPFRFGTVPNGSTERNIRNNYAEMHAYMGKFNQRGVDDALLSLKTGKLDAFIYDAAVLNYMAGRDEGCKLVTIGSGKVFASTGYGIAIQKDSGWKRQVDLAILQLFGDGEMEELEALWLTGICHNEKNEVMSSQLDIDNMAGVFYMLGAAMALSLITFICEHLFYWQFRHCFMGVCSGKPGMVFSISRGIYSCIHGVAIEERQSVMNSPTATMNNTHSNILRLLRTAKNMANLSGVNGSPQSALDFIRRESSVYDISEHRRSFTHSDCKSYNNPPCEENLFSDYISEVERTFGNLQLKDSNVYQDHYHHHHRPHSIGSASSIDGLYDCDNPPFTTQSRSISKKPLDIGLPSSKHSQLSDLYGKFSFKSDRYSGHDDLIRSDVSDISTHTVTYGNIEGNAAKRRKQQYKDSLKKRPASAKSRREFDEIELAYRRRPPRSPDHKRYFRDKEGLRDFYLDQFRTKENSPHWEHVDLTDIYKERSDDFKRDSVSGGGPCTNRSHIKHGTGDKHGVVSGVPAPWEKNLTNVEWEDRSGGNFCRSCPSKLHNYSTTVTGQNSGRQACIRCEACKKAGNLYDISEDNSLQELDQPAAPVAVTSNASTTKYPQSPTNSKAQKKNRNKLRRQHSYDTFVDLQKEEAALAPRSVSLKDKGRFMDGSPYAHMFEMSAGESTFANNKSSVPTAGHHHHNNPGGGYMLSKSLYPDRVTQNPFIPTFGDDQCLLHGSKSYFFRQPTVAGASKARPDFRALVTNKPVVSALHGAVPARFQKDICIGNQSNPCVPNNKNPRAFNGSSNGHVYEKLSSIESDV
# Source text: (§1) CHO cell lines stably over-expressing heterodimeric NMDARs composed of human NR1 and 2 subunits were generated by Aptuit, an Evotec company (Verona, Italy). Cell line details are available at ExPASy Cellosaurus database. Research Resource Identifiers (RRIDs) are CVCL_B3TY, CVCL_B3TZ, CVCL_B3U0, and CVCL_B3U1 for CHO-hNR1-h2A, CHO-hNR1-h2B, CHO-hN1-h2C, and CHO-hN1-h2D, respectively. Protein accession numbers were NP_015566, NP_000824, NP_000825, NP_000826, and NP_000827 for NR1, 2A, 2B, 2C, and 2D, respectively. […] The four different heterodimeric NMDARs studied were NR1-2A, NR1-2B, NR1-2C, and NR1-2D. Cell lines were cultured for a maximum of 75 passages.
# (§2) FLIPR assay allowed for indirect measurement of intracellular Ca^2+ concentration by means of a Ca^2+-sensitive fluorescent dye (Fluo-4) using the FLIPR instrument (Molecular Devices, San Jose, CA, USA). For these assays, 40 mM stock solutions of the test items were prepared in 100% dimethyl sulfoxide (DMSO), while glutamate and glycine 4 mM stock solutions were prepared in water. 384-well compound plates containing 400 × concentrated test item, glutamate, and glycine were prepared using Labcyte Echo acoustic dispensing system and stored at −20 °C until the day of the experiment.
# (§3) Glycine 10 μM was always included in every test item addition.
# (§4) Glycine was kept at a constant concentration of 10 μM during experiments.
# [2] = biological target: T2, NR1-2C NMDAR (Homo sapiens, UniProt Q05586+Q14957); assay: as above; assay type: cell-based; parameters: host or cells: CHO (CHO-hN1-h2C), tetracycline-induced expression; details: for Min. (%), minimal % Ca2+ influx in the presence of 100 μM blocker: 10 µM L-glutamate, no Mg2+; for Slope: logistic fit of blocker CRC
# T2 sequence (Q14957 20-1233, other chains not shown): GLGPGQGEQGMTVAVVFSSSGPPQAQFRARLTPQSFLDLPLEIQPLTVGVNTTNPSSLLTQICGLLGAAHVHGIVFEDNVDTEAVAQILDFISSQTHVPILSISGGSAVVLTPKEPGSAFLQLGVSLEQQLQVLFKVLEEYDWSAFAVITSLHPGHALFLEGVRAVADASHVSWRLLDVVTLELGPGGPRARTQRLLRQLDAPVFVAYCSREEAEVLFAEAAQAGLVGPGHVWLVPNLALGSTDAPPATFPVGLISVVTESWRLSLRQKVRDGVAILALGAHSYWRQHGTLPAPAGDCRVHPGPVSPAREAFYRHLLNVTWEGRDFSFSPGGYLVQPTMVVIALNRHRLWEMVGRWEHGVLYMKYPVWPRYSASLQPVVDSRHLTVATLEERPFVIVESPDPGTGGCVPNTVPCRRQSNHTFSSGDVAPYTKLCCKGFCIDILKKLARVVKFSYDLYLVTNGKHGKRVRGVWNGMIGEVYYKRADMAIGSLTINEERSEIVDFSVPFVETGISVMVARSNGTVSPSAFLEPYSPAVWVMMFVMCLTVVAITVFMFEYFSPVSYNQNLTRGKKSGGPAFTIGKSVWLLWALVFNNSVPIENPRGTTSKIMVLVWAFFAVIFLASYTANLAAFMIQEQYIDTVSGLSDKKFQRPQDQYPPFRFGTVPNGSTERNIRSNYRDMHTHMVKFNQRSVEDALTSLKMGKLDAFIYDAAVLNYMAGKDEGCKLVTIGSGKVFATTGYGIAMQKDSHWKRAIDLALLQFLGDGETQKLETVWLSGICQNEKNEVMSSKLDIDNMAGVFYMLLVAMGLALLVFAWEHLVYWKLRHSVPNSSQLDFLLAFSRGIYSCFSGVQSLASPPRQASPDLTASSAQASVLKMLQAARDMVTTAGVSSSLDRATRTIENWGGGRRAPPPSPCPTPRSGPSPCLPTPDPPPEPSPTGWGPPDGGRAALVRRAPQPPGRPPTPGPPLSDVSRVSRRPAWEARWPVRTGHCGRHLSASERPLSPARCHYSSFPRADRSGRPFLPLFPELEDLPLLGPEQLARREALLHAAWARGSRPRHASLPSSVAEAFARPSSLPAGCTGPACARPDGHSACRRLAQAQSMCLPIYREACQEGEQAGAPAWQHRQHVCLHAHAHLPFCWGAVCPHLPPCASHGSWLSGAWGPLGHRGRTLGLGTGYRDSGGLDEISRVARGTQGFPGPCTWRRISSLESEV
# Source text: as §1, §2, §3, §4
# [3] = biological target: T3, NR1-2D NMDAR (Homo sapiens, UniProt O15399+Q05586); assay: cell-based; assay type: cell-based; parameters: host or cells: CHO (CHO-hN1-h2D), tetracycline-induced expression; details: for remaining activity at 0.049 µM / remaining activity at 0.195 µM / remaining activity at 0.781 µM / remaining activity at 3.1 µM / remaining activity at 12.5 µM / remaining activity at 50 µM: read-out: L-glutamate Max. (maximal asymptote) in the presence of test item, GluN1/GluN2D; for remaining activity at 0.049 µM: test item 0.049 μM; for remaining activity at 0.195 µM: test item 0.195 μM; for remaining activity at 0.781 µM: test item 0.781 μM; for remaining activity at 3.1 µM: test item 3.1 μM; for remaining activity at 12.5 µM: test item 12.5 μM; for remaining activity at 50 µM: test item 50 μM
# [4] = biological target: T3, NR1-2D NMDAR; assay: FLIPR Ca2+ assay, blocker concentration-response curve; assay type: cell-based; parameters: host or cells: CHO (CHO-hN1-h2D), tetracycline-induced expression; details: for Min. (%), minimal % Ca2+ influx in the presence of 100 μM blocker: 10 µM L-glutamate, no Mg2+; for Slope: logistic fit of blocker CRC
# Source text: as §1, §2, §3, §4
# [5] = system: NMDAR; details: rat cortical membranes
# [6] = biological target: T4, NR1-2A NMDAR (Homo sapiens, UniProt Q05586+Q12879); assay: FLIPR Ca2+ assay, blocker concentration-response curve; assay type: cell-based; parameters: host or cells: CHO (CHO-hNR1-h2A), tetracycline-induced expression; details: for Slope: logistic fit of blocker CRC
# T4 sequence (Q12879 23-1464, other chains not shown): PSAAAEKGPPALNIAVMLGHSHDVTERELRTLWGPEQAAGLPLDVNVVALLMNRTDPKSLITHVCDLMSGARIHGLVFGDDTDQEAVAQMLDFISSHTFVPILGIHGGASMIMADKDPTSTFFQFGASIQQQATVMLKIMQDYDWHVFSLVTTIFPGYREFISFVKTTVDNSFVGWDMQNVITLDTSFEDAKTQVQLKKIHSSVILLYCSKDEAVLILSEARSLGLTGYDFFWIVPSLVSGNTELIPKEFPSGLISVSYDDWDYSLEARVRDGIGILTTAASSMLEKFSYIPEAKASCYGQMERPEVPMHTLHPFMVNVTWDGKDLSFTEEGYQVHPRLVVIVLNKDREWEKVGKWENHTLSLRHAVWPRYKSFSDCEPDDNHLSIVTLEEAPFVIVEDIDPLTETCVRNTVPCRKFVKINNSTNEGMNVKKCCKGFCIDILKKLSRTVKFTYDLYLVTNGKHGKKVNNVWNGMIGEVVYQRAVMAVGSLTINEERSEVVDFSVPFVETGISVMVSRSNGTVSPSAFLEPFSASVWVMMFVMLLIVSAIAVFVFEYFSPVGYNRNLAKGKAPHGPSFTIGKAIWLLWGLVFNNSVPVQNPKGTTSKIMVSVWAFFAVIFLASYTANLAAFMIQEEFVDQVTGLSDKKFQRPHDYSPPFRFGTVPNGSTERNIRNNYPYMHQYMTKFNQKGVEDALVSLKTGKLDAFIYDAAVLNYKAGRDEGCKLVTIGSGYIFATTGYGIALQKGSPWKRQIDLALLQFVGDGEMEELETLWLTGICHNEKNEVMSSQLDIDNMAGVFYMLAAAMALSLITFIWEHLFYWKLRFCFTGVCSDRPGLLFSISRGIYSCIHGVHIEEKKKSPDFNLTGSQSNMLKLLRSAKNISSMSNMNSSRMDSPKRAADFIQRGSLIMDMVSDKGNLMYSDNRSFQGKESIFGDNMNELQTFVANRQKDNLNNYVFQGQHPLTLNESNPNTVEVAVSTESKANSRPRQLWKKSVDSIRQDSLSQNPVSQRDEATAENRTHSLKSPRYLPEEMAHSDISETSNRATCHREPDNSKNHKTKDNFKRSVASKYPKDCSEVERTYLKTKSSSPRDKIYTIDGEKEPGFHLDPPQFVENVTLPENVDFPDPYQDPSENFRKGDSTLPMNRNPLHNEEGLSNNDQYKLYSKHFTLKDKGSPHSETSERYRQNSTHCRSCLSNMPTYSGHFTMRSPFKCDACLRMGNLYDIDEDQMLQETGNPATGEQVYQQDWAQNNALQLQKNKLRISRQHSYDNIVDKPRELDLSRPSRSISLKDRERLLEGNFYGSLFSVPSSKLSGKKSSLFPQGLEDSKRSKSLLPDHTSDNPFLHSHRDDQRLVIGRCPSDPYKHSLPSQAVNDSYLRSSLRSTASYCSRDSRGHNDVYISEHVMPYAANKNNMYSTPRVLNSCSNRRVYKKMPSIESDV
# Source text: as §1, §2, §3, §4
# [7] = biological target: T4, NR1-2A NMDAR; assay: cell-based; assay type: cell-based; parameters: host or cells: CHO (CHO-hNR1-h2A), tetracycline-induced expression; details: for remaining activity at 0.049 µM / remaining activity at 0.195 µM / remaining activity at 0.781 µM / remaining activity at 3.1 µM / remaining activity at 12.5 µM / remaining activity at 50 µM: read-out: L-glutamate Max. (maximal asymptote) in the presence of test item, GluN1/GluN2A; for remaining activity at 0.049 µM: test item 0.049 μM; for remaining activity at 0.195 µM: test item 0.195 μM; for remaining activity at 0.781 µM: test item 0.781 μM; for remaining activity at 3.1 µM: test item 3.1 μM; for remaining activity at 12.5 µM: test item 12.5 μM; for remaining activity at 50 µM: test item 50 μM
# [8] = biological target: T1, NR1-2B NMDAR; assay: cell-based; assay type: cell-based; parameters: host or cells: CHO (CHO-hNR1-h2B), constitutive expression; details: for remaining activity at 0.049 µM / remaining activity at 0.195 µM / remaining activity at 0.781 µM / remaining activity at 3.1 µM / remaining activity at 12.5 µM / remaining activity at 50 µM: read-out: L-glutamate Max. (maximal asymptote) in the presence of test item, GluN1/GluN2B; for remaining activity at 0.049 µM: test item 0.049 μM; for remaining activity at 0.195 µM: test item 0.195 μM; for remaining activity at 0.781 µM: test item 0.781 μM; for remaining activity at 3.1 µM: test item 3.1 μM; for remaining activity at 12.5 µM: test item 12.5 μM; for remaining activity at 50 µM: test item 50 μM
# [9] = biological target: T2, NR1-2C NMDAR; assay: cell-based; assay type: cell-based; parameters: host or cells: CHO (CHO-hN1-h2C), tetracycline-induced expression; details: for remaining activity at 0.049 µM / remaining activity at 0.195 µM / remaining activity at 0.781 µM / remaining activity at 3.1 µM / remaining activity at 12.5 µM / remaining activity at 50 µM: read-out: L-glutamate Max. (maximal asymptote) in the presence of test item, GluN1/GluN2C; for remaining activity at 0.049 µM: test item 0.049 μM; for remaining activity at 0.195 µM: test item 0.195 μM; for remaining activity at 0.781 µM: test item 0.781 μM; for remaining activity at 3.1 µM: test item 3.1 μM; for remaining activity at 12.5 µM: test item 12.5 μM; for remaining activity at 50 µM: test item 50 μM
# [10] = biological target: T4, NR1-2A NMDAR; assay: Whole-cell manual patch-clamp REL-1017 CRC in 1 mM MgCl2; details: 1 mM MgCl2, 1 μM L-glutamate, −60 mV
# [11] = biological target: T3, NR1-2D NMDAR; assay: as above; details: 1 mM MgCl2, 1 μM L-glutamate, −60 mV
# [12] = biological target: T2, NR1-2C NMDAR; assay: Whole-cell manual patch-clamp: current block, onset/offset kinetics and trapping, no Mg2+; details: test item 10 µM, −70 mV
# [13] = biological target: T1, NR1-2B NMDAR; assay: Whole-cell manual patch-clamp REL-1017 CRC in 1 mM MgCl2; details: 1 mM MgCl2, 1 μM L-glutamate, −60 mV
smiles,measurement,setting,value
"COc1ccc2c(c1)[C@]13CCCC[C@@H]1[C@H](C2)N(C)CC3 [Dextromethorphan, dextromethorphan]","Min. (%), minimal % Ca2+ influx in the presence of 100 μM blocker",[1],14%
same,Slope,[1],−0.89
same,"Min. (%), minimal % Ca2+ influx in the presence of 100 μM blocker",[2],14%
same,Slope,[2],−1.0
same,Kb,"[3]; NR1-2D, operational equation for allosteric modulators, no Mg2+",6.7 µM
same,Affinity Ratio (%),"[3]; NR1-2D, reciprocal of KB, highest affinity subtype = 100%",18%
same,remaining activity at 0.049 µM,[3],93%
same,remaining activity at 0.195 µM,[3],91%
same,remaining activity at 0.781 µM,[3],99%
same,remaining activity at 3.1 µM,[3],87%
same,remaining activity at 12.5 µM,[3],59%
same,remaining activity at 50 µM,[3],31%
same,"Min. (%), minimal % Ca2+ influx in the presence of 100 μM blocker",[4],43%
same,Slope,[4],−1.2
same,IC50,[5]; [3H]TCP 4 nM,2.06 µM
same,Ki,"[5]; [3H]TCP, Cheng and Prusoff",1.4 µM
same,"Min. (%), minimal % Ca2+ influx in the presence of 100 μM blocker","[6]; 100 μM blocker, 10 µM L-glutamate, no Mg2+",35%
same,Slope,[6],−0.80
same,Kb,"[7]; NR1-2A, operational equation for allosteric modulators, no Mg2+",9.6 µM
same,Affinity Ratio (%),"[7]; NR1-2A, reciprocal of KB, highest affinity subtype = 100%",13%
same,remaining activity at 0.049 µM,[7],98%
same,remaining activity at 0.195 µM,[7],92%
same,remaining activity at 0.781 µM,[7],99%
same,remaining activity at 3.1 µM,[7],88%
same,remaining activity at 12.5 µM,[7],79%
same,remaining activity at 50 µM,[7],44%
same,Kb,"[8]; NR1-2B, operational equation for allosteric modulators, no Mg2+",1.9 µM
same,Affinity Ratio (%),"[8]; NR1-2B, reciprocal of KB, highest affinity subtype = 100%",63%
same,remaining activity at 0.049 µM,[8],95%
same,remaining activity at 0.195 µM,[8],92%
same,remaining activity at 0.781 µM,[8],88%
same,remaining activity at 3.1 µM,[8],74%
same,remaining activity at 12.5 µM,[8],57%
same,remaining activity at 50 µM,[8],32%
same,Kb,"[9]; NR1-2C, operational equation for allosteric modulators, no Mg2+",1.2 µM
same,Affinity Ratio (%),"[9]; NR1-2C, reciprocal of KB, highest affinity subtype = 100%",100%
same,remaining activity at 0.049 µM,[9],95%
same,remaining activity at 0.195 µM,[9],97%
same,remaining activity at 0.781 µM,[9],86%
same,remaining activity at 3.1 µM,[9],67%
same,remaining activity at 12.5 µM,[9],26%
same,remaining activity at 50 µM,[9],13%
"CCC(=O)C(C[C@H](C)N(C)C)(c1ccccc1)c1ccccc1 [REL-1017, dextromethadone HCl]","Min. (%), minimal % Ca2+ influx in the presence of 100 μM blocker",[1],14%
same,Slope,[1],−1.1
same,"Min. (%), minimal % Ca2+ influx in the presence of 100 μM blocker",[2],15%
same,Slope,[2],−0.84
same,remaining activity at 0.049 µM,[3],101%
same,remaining activity at 0.195 µM,[3],97%
same,remaining activity at 0.781 µM,[3],101%
same,remaining activity at 3.1 µM,[3],97%
same,remaining activity at 12.5 µM,[3],82%
same,remaining activity at 50 µM,[3],41%
same,"Min. (%), minimal % Ca2+ influx in the presence of 100 μM blocker",[4],47%
same,Slope,[4],−0.68
same,Slope,[6],−1.0
same,remaining activity at 0.049 µM,[7],103%
same,remaining activity at 0.195 µM,[7],98%
same,remaining activity at 0.781 µM,[7],103%
same,remaining activity at 3.1 µM,[7],98%
same,remaining activity at 12.5 µM,[7],84%
same,remaining activity at 50 µM,[7],35%
same,Hill Slope,[10],1.06
same,Hill Slope,[11],1.42
same,"I1 (% Current) at end of test item addition, normalized to I0",[12]; 30 s co-application,20.4%
same,"I2 (% Current) at end of test item removal, normalized to I0",[12]; 50 s after removal,98.5%
same,BR (residual block),[12]; after wash with glycine alone,71.8 ± 1.1
same,B (initial block),[12],84 ± 1% and 83.8 ± 1.2 %
same,"BT (trapped block, BR/B × 100)",[12],85.9 ± 1.9%
same,Tau off,[12],17.7 ± 1.0 s
same,Tau on,[12],4.7 ± 0.21 s
same,remaining activity at 0.049 µM,[8],96%
same,remaining activity at 0.195 µM,[8],96%
same,remaining activity at 0.781 µM,[8],93%
same,remaining activity at 3.1 µM,[8],89%
same,remaining activity at 12.5 µM,[8],72%
same,remaining activity at 50 µM,[8],35%
same,Hill Slope,[13],1.17
same,remaining activity at 0.049 µM,[9],99%
same,remaining activity at 0.195 µM,[9],100%
same,remaining activity at 0.781 µM,[9],95%
same,remaining activity at 3.1 µM,[9],94%
same,remaining activity at 12.5 µM,[9],75%
same,remaining activity at 50 µM,[9],30%
